Laboratory results: the supplement of paper PMC13380429

Columns and labels:
Conditions in all cases: 72 h
Caco-2 [1] = experiment: cell viability relative to DMSO; higher = less toxic
Calu-3 [2] = experiment: as above
HepG2 [3] = experiment: as above
U2OS [4] = experiment: as above
Vero E6 [5] = experiment: as above
Caco-2 [6] = experiment: relative viability EC50 (midpoint between 100% and the lowest measured viability); higher = less toxic
Calu-3 [7] = experiment: as above
HepG2 [8] = experiment: as above
U2OS [9] = experiment: as above
Vero E6 [10] = experiment: as above
Caco-2 [11] = experiment: drug sensitivity score (DSS) for viability; higher = more toxic; extreme values may be limits of the assay
Calu-3 [12] = experiment: as above
HepG2 [13] = experiment: as above
U2OS [14] = experiment: as above
Vero E6 [15] = experiment: as above

SMILES | cell viability (Caco-2 [1]; 1 nM) [%] | cell viability (Caco-2 [1]; 10 nM) [%] | cell viability (Caco-2 [1]; 100 nM) [%] | cell viability (Caco-2 [1]; 1000 nM) [%] | cell viability (Caco-2 [1]; 10000 nM) [%] | cell viability (Calu-3 [2]; 1 nM) [%] | cell viability (Calu-3 [2]; 10 nM) [%] | cell viability (Calu-3 [2]; 100 nM) [%] | cell viability (Calu-3 [2]; 1000 nM) [%] | cell viability (Calu-3 [2]; 10000 nM) [%] | cell viability (HepG2 [3]; 1 nM) [%] | cell viability (HepG2 [3]; 10 nM) [%] | cell viability (HepG2 [3]; 100 nM) [%] | cell viability (HepG2 [3]; 1000 nM) [%] | cell viability (HepG2 [3]; 10000 nM) [%] | cell viability (U2OS [4]; 1 nM) [%] | cell viability (U2OS [4]; 10 nM) [%] | cell viability (U2OS [4]; 100 nM) [%] | cell viability (U2OS [4]; 1000 nM) [%] | cell viability (U2OS [4]; 10000 nM) [%] | cell viability (Vero E6 [5]; 1 nM) [%] | cell viability (Vero E6 [5]; 10 nM) [%] | cell viability (Vero E6 [5]; 100 nM) [%] | cell viability (Vero E6 [5]; 1000 nM) [%] | cell viability (Vero E6 [5]; 10000 nM) [%] | relative viability EC50 (Caco-2 [6]) [µM] | relative viability EC50 (Calu-3 [7]) [µM] | relative viability EC50 (HepG2 [8]) [µM] | relative viability EC50 (U2OS [9]) [µM] | relative viability EC50 (Vero E6 [10]) [µM] | drug sensitivity score (Caco-2 [11]) | drug sensitivity score (Calu-3 [12]) | drug sensitivity score (HepG2 [13]) | drug sensitivity score (U2OS [14]) | drug sensitivity score (Vero E6 [15])
COc1cccc2c1C(=O)c1c(O)c3c(c(O)c1C2=O)C[C@@](O)(C(=O)CO)C[C@@H]3O[C@H]1C[C@H](N)[C@H](O[C@@H]2CCCCO2)[C@H](C)O1 [pirarubicin] | 96.9 | 92.4 | 89.7 | 68.4 | 20.7 | 103 | 92.7 | 86.7 | 59.1 | 27.4 | 104 | 101 | 87.4 | 38.3 | 0.8 | 98.9 | 99.5 | 99.4 | 84.6 | 1.1 | 102 | 98.1 | 96.7 | 73.5 | 40.6 | 1.25 | 0.622 | 0.619 | 1.95 | 1.12 | 7.9 | 9.6 | 13.5 | 8 | 6.3
O=C(O)c1cc(O)c2c3nc4ccccc4oc-3cc(=O)c2n1 [pirenoxine] | 99.6 | 103 | 108 | 83.6 | 81.7 | 108 | 109 | 102 | 106 | 99.4 | 103 | 113 | 89.5 | 99.6 | 92.6 | 106 | 99.7 | 102 | 103 | 103 | 105 | 107 | 96.6 | 101 | 95 | > 10 | > 10 | > 10 | > 10 | > 10 | 1.9 | 0 | 0 | 0 | 0
CN1C(C(=O)Nc2ccccn2)=C(O)c2ccccc2S1(=O)=O [piroxicam] | 93.6 | 96 | 104 | 100 | 100 | 99.8 | 95.5 | 101 | 96.8 | 105 | 92 | 107 | 92.5 | 105 | 115 | 98.5 | 94.9 | 99.3 | 95.9 | 101 | 93.1 | 101 | 94.4 | 93.5 | 114 | > 10 | > 10 | > 10 | > 10 | > 10 | 0 | 0 | 0 | 0 | 0
CC(C)NC(=N)NC(=N)Nc1ccc(Cl)cc1 [proguanil] | 101 | 93.5 | 108 | 105 | 106 | 101 | 90.2 | 96 | 93.7 | 95.4 | 94.8 | 100 | 91.8 | 106 | 101 | 98 | 93.3 | 98.6 | 97.1 | 98.3 | 97 | 91.9 | 87.3 | 100 | 94.7 | > 10 | > 10 | > 10 | > 10 | > 10 | 0 | 0 | 0 | 0 | 0
CC(C)[N+](C)(CCOC(=O)C1c2ccccc2Oc2ccccc21)C(C)C [propantheline] | 86.1 | 95.3 | 105 | 91.7 | 105 | 93.8 | 101 | 108 | 108 | 109 | 107 | 99 | 103 | 110 | 93.6 | 96.9 | 95.6 | 102 | 96.9 | 102 | 108 | 108 | 98.8 | 104 | 101 | > 10 | > 10 | > 10 | > 10 | > 10 | 0 | 0 | 0 | 0 | 0
Cc1ncc(CO)c(CO)c1O [pyridoxine] | 96.4 | 80.3 | 94.3 | 105 | 88 | 92.2 | 97.2 | 97.1 | 98.5 | 98.6 | 98.5 | 105 | 91 | 96.2 | 107 | 96.7 | 94.2 | 98.1 | 94.6 | 96.8 | 102 | 105 | 97.8 | 108 | 106 | > 10 | > 10 | > 10 | > 10 | > 10 | 0 | 0 | 0 | 0 | 0
COCCCOc1ccnc(C[S+]([O-])c2nc3ccccc3[nH]2)c1C (stereo not given) [rabeprazole] | 99.4 | 102 | 97.3 | 94.8 | 95.6 | 98 | 92.7 | 98.6 | 103 | 100 | 97.6 | 106 | 91.9 | 94.6 | 95.8 | 102 | 97.4 | 100 | 99.9 | 100 | 98 | 108 | 94.3 | 105 | 100 | > 10 | > 10 | > 10 | > 10 | > 10 | 0 | 0 | 0 | 0 | 0
O=C(NC(Cc1cc(=O)[nH]c2ccccc12)C(=O)O)c1ccc(Cl)cc1 (stereo not given) [rebamipide] | 92.6 | 97.7 | 89.9 | 100 | 99.3 | 99.2 | 97.5 | 92.7 | 99.7 | 106 | 107 | 89.4 | 108 | 105 | 104 | 90.5 | 96.7 | 93.9 | 103 | 110 | 101 | 96 | 97.6 | 96.8 | 110 | > 10 | > 10 | > 10 | > 10 | > 10 | 0 | 0 | 0 | 0 | 0
Oc1ccc(/C=C/c2cc(O)cc(O)c2)cc1 [resveratrol] | 93.3 | 91.6 | 95.8 | 99.3 | 90.1 | 106 | 103 | 94.8 | 93.7 | 87.2 | 107 | 116 | 108 | 97.9 | 104 | 97.7 | 95 | 96.9 | 106 | 106 | 97.5 | 97.3 | 94.9 | 100 | 98.6 | > 10 | > 10 | > 10 | > 10 | > 10 | 0 | 0.1 | 0 | 0 | 0
OC[C@@H](O)[C@@H](O)[C@@H](O)CO [ribitol] | 100 | 97 | 104 | 102 | 103 | 102 | 93 | 98.1 | 96.6 | 98 | 101 | 90.9 | 111 | 100 | 105 | 98.9 | 96.2 | 97.4 | 93 | 102 | 93.7 | 100 | 97.8 | 99.2 | 101 | > 10 | > 10 | > 10 | > 10 | > 10 | 0 | 0 | 0 | 0 | 0
CO[C@H]1/C=C/O[C@@]2(C)Oc3c(C)c(O)c4c(O)c(c(/C=N/N5CCN(C6CCCC6)CC5)c(O)c4c3C2=O)NC(=O)/C(C)=C\C=C\[C@H](C)[C@H](O)[C@@H](C)[C@@H](O)[C@@H](C)[C@H](OC(C)=O)[C@@H]1C [rifapentine] | 95.2 | 94.9 | 94.4 | 102 | 77.6 | 101 | 104 | 94.4 | 111 | 88.2 | 96.4 | 92.9 | 94 | 97.7 | 89.3 | 96.3 | 103 | 95.3 | 100 | 85.7 | 96.2 | 93.7 | 97 | 89.1 | 97.7 | > 10 | > 10 | > 10 | > 10 | > 10 | 0.7 | 0 | 0 | 0.2 | 0
N[C@@H]1c2cccnc2[C@H](OC(=O)N2CCC(n3c(=O)[nH]c4ncccc43)CC2)CC[C@H]1c1cccc(F)c1F [rimegepant] | 99.3 | 94.5 | 98.1 | 91.2 | 102 | 90.7 | 95.3 | 98.4 | 92.9 | 97.6 | 92.4 | 98.6 | 98.8 | 106 | 104 | 102 | 96.1 | 101 | 97.2 | 100 | 97 | 96.8 | 91.6 | 99.7 | 112 | > 10 | > 10 | > 10 | > 10 | > 10 | 0 | 0 | 0 | 0 | 0
C[C@H]1CNCCCN1S(=O)(=O)c1cccc2cncc(F)c12 [ripasudil] | 92 | 90.4 | 87.5 | 99.2 | 101 | 88.6 | 98.1 | 102 | 138 | 143 | 111 | 101 | 101 | 92.1 | 88 | 98.4 | 100 | 99.4 | 99.8 | 92.9 | 109 | 103 | 105 | 91.6 | 88.7 | > 10 | > 10 | > 10 | > 10 | > 10 | 0 | 0 | 0.3 | 0 | 0.2
O=P(O)(O)C(O)(Cc1cccnc1)P(=O)(O)O [risedronate] | 95.6 | 103 | 94.1 | 97.8 | 94.7 | 97.9 | 98.7 | 103 | 99.2 | 104 | 83.2 | 97.1 | 95.5 | 93.2 | 101 | 102 | 96.1 | 98 | 96.2 | 96 | 93.1 | 98.7 | 93 | 94.8 | 104 | > 10 | > 10 | > 10 | > 10 | > 10 | 0 | 0 | 0 | 0 | 0
